Test results: the supplement of paper PMC6045584
± gives the standard deviation of the averaged measurements.

Compound: COc1cc(CCc2cc(NC(=O)c3ccc(N4CC(C)NC(C)C4)cc3)n[nH]2)cc(OC)c1 [AZD4547]
Assay: surviving fraction relative to DMSO-only wells; higher = less growth inhibition
Settings: 50 nM; exposure time: 5 days
Summary of the method: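 Luminescence normalised to the median of DMSO-only wells defines surviving fraction, with viability read by CellTiter-Glo. Signal was recorded after 10 minutes at room temperature, once log-phase tumour cell lines seeded at 250–500 cells per well in 384-well plates had spent 24 hours settling and then five days under continuous exposure to inhibitors at 0.5, 1, 5, 10, 50, 100, 500 and 1000 nM.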

MDAMB231 BREAST and MDAMB361 BREAST are within error of each other in surviving fraction: 1.02 ± 0.019 for the first, 0.967 ± 0.067 for the second.

Compared with MDAMB436 BREAST, MDAMB453 BREAST is higher in surviving fraction: 0.978 ± 0.059 for the first, 1.1 ± 0.019 for the second.

Compared with MDAMB468 BREAST, MFM223 BREAST is lower in surviving fraction: 1.02 ± 0.09 for the first, 0.244 ± 0.018 for the second.

Compared with MG63 BONE, MHM BONE is higher in surviving fraction: 0.662 ± 0.015 for the first, 0.776 ± 0.014 for the second.

Compared with NCIH441 LUNG, NOS1 BONE is lower in surviving fraction: 1.01 ± 0.038 for the first, 0.87 ± 0.093 for the second.

First: NY BONE
Second: OS25HAL BONE
The surviving fraction of the first is lower: 0.466 ± 0.0057 for the first, 1.02 ± 0.016 for the second.

Compared with OSHN BONE, PCI30 HEADNECK is higher in surviving fraction: 1.07 ± 0.023 for the first, 1.16 ± 0.061 for the second.

RDES SOFT TISSUE and S68 BREAST are within error of each other in surviving fraction: 0.835 ± 0.13 for the first, 0.957 ± 0.23 for the second.

Going from SAOS2 BONE to SCC36 HEADNECK, the surviving fraction falls from 1.16 ± 0.054 to 0.988 ± 0.07.

SCC47 HEADNECK and SCC90 HEADNECK are the same in surviving fraction: 1.08 ± 0.037 for the first, 1.08 ± 0.038 for the second.

Compared with SG27 HEADNECK, SG28 HEADNECK is higher in surviving fraction: 0.68 ± 0.069 for the first, 0.959 ± 0.048 for the second.

Compared with SG31 HEADNECK, SG32 HEADNECK is higher in surviving fraction: 0.836 ± 0.07 for the first, 1.04 ± 0.031 for the second.

SG43 HEADNECK and SIHA CERVIX are within error of each other in surviving fraction: 0.759 ± 0.099 for the first, 0.839 ± 0.079 for the second.

SJSA1 BONE and SKBR3 BREAST are within error of each other in surviving fraction: 1.14 ± 0.036 for the first, 1.15 ± 0.13 for the second.

Compared with SNU475 LIVER, SUM44 BREAST is higher in surviving fraction: 0.925 ± 0.047 for the first, 1.11 ± 0.019 for the second.

SUM149 BREAST and SUM149.B1*.S BREAST are within error of each other in surviving fraction: 1.04 ± 0.072 for the first, 1.05 ± 0.083 for the second.

Going from SUM159 BREAST to SYO1 SYNOVIAL, the surviving fraction falls from 1.15 ± 0.2 to 0.664 ± 0.012.

First: T47D BREAST
Second: U2OS BONE
The surviving fraction of the first is higher: 1.09 ± 0.018 for the first, 0.777 ± 0.013 for the second.

Going from VCAP PROSTATE to VP229 BREAST, the surviving fraction rises from 0.948 ± 0.07 to 1.25 ± 0.1.

Going from YAMATO SYNOVIAL to ZR751 BREAST, the surviving fraction falls from 1.16 ± 0.064 to 0.837 ± 0.15.

Same assay, conditions: 100 nM; exposure time: 5 days

MDAMB231 BREAST and MDAMB361 BREAST are within error of each other in surviving fraction: 1.06 ± 0.032 for the first, 0.993 ± 0.061 for the second.

First: MDAMB436 BREAST
Second: MDAMB453 BREAST
The surviving fraction of the first is higher: 0.958 ± 0.062 for the first, 0.825 ± 0.021 for the second.

Compared with MDAMB468 BREAST, MFM223 BREAST is lower in surviving fraction: 1.16 ± 0.096 for the first, 0.254 ± 0.015 for the second.

Compared with MG63 BONE, MHM BONE is higher in surviving fraction: 0.63 ± 0.041 for the first, 0.694 ± 0.0087 for the second.

First: NCIH441 LUNG
Second: NOS1 BONE
The surviving fraction of the first is higher: 1.02 ± 0.026 for the first, 0.824 ± 0.055 for the second.

Compared with NY BONE, OS25HAL BONE is higher in surviving fraction: 0.394 ± 0.019 for the first, 1.036 ± 0.0095 for the second.

OSHN BONE and PCI30 HEADNECK are within error of each other in surviving fraction: 1.1 ± 0.044 for the first, 1.17 ± 0.11 for the second.

First: RDES SOFT TISSUE
Second: S68 BREAST
The surviving fraction of the first is lower: 0.813 ± 0.14 for the first, 1.53 ± 0.1 for the second.

First: SAOS2 BONE
Second: SCC36 HEADNECK
The surviving fraction of the first is higher: 1.14 ± 0.051 for the first, 1.01 ± 0.039 for the second.

SCC47 HEADNECK and SCC90 HEADNECK are within error of each other in surviving fraction: 1.09 ± 0.091 for the first, 1.15 ± 0.055 for the second.

First: SG27 HEADNECK
Second: SG28 HEADNECK
The surviving fraction of the first is lower: 0.791 ± 0.032 for the first, 1.04 ± 0.087 for the second.

SG31 HEADNECK and SG32 HEADNECK are within error of each other in surviving fraction: 0.856 ± 0.12 for the first, 0.946 ± 0.032 for the second.

First: SG43 HEADNECK
Second: SIHA CERVIX
The surviving fraction of the first is lower: 0.696 ± 0.14 for the first, 0.895 ± 0.054 for the second.

Going from SJSA1 BONE to SKBR3 BREAST, the surviving fraction rises from 1.06 ± 0.05 to 1.26 ± 0.13.

Compared with SNU475 LIVER, SUM44 BREAST is higher in surviving fraction: 0.948 ± 0.019 for the first, 1.06 ± 0.011 for the second.

First: SUM149 BREAST
Second: SUM149.B1*.S BREAST
The surviving fraction of the first is lower: 0.989 ± 0.05 for the first, 1.07 ± 0.018 for the second.

Going from SUM159 BREAST to SYO1 SYNOVIAL, the surviving fraction falls from 1.14 ± 0.2 to 0.686 ± 0.02.

First: T47D BREAST
Second: U2OS BONE
The surviving fraction of the first is higher: 1.12 ± 0.025 for the first, 0.759 ± 0.029 for the second.

First: VCAP PROSTATE
Second: VP229 BREAST
The surviving fraction of the first is lower: 1.07 ± 0.07 for the first, 1.42 ± 0.092 for the second.

YAMATO SYNOVIAL and ZR751 BREAST are within error of each other in surviving fraction: 1.08 ± 0.045 for the first, 1.01 ± 0.029 for the second.

Same assay, conditions: 500 nM; exposure time: 5 days

Compared with MDAMB231 BREAST, MDAMB361 BREAST is lower in surviving fraction: 1.06 ± 0.035 for the first, 0.851 ± 0.035 for the second.

First: MDAMB436 BREAST
Second: MDAMB453 BREAST
The surviving fraction of the first is higher: 1.07 ± 0.023 for the first, 0.565 ± 0.021 for the second.

First: MDAMB468 BREAST
Second: MFM223 BREAST
The surviving fraction of the first is higher: 1.06 ± 0.019 for the first, 0.298 ± 0.015 for the second.

MG63 BONE and MHM BONE are within error of each other in surviving fraction: 0.576 ± 0.02 for the first, 0.587 ± 0.0075 for the second.

Compared with NCIH441 LUNG, NOS1 BONE is lower in surviving fraction: 0.934 ± 0.17 for the first, 0.385 ± 0.025 for the second.

First: NY BONE
Second: OS25HAL BONE
The surviving fraction of the first is lower: 0.359 ± 0.023 for the first, 0.948 ± 0.04 for the second.

OSHN BONE and PCI30 HEADNECK are within error of each other in surviving fraction: 1.07 ± 0.042 for the first, 1.1 ± 0.012 for the second.

RDES SOFT TISSUE and S68 BREAST are within error of each other in surviving fraction: 0.961 ± 0.16 for the first, 1.05 ± 0.035 for the second.

Going from SAOS2 BONE to SCC36 HEADNECK, the surviving fraction falls from 0.92467 ± 0.00058 to 0.856 ± 0.029.

SCC47 HEADNECK and SCC90 HEADNECK are within error of each other in surviving fraction: 1.03 ± 0.078 for the first, 1.04 ± 0.043 for the second.

First: SG27 HEADNECK
Second: SG28 HEADNECK
The surviving fraction of the first is lower: 0.849 ± 0.027 for the first, 1.01 ± 0.077 for the second.

SG31 HEADNECK and SG32 HEADNECK are within error of each other in surviving fraction: 0.883 ± 0.049 for the first, 0.968 ± 0.3 for the second.

SG43 HEADNECK and SIHA CERVIX are within error of each other in surviving fraction: 0.94 ± 0.11 for the first, 0.786 ± 0.06 for the second.

SJSA1 BONE and SKBR3 BREAST are within error of each other in surviving fraction: 1.01 ± 0.041 for the first, 1.16 ± 0.18 for the second.

First: SNU475 LIVER
Second: SUM44 BREAST
The surviving fraction of the first is lower: 0.939 ± 0.053 for the first, 1.09 ± 0.066 for the second.

SUM149 BREAST and SUM149.B1*.S BREAST are within error of each other in surviving fraction: 1.02 ± 0.073 for the first, 1.07 ± 0.054 for the second.

Going from SUM159 BREAST to SYO1 SYNOVIAL, the surviving fraction falls from 1.22 ± 0.27 to 0.637 ± 0.041.

Going from T47D BREAST to U2OS BONE, the surviving fraction falls from 1.18 ± 0.03 to 0.711 ± 0.012.

Compared with VCAP PROSTATE, VP229 BREAST is higher in surviving fraction: 0.795 ± 0.048 for the first, 1.4 ± 0.25 for the second.

YAMATO SYNOVIAL and ZR751 BREAST are within error of each other in surviving fraction: 0.911 ± 0.05 for the first, 1.05 ± 0.093 for the second.

Same assay, conditions: 1000 nM; exposure time: 5 days

Going from MDAMB231 BREAST to MDAMB361 BREAST, the surviving fraction falls from 1.06 ± 0.028 to 0.76 ± 0.052.

Compared with MDAMB436 BREAST, MDAMB453 BREAST is lower in surviving fraction: 1.02 ± 0.024 for the first, 0.585 ± 0.025 for the second.

Going from MDAMB468 BREAST to MFM223 BREAST, the surviving fraction falls from 1.14 ± 0.042 to 0.3 ± 0.021.

MG63 BONE and MHM BONE are within error of each other in surviving fraction: 0.572 ± 0.018 for the first, 0.582 ± 0.011 for the second.

Going from NCIH441 LUNG to NOS1 BONE, the surviving fraction falls from 0.929 ± 0.093 to 0.187 ± 0.036.

First: NY BONE
Second: OS25HAL BONE
The surviving fraction of the first is lower: 0.315 ± 0.026 for the first, 0.992 ± 0.018 for the second.

OSHN BONE and PCI30 HEADNECK are within error of each other in surviving fraction: 1.06 ± 0.011 for the first, 0.999 ± 0.07 for the second.

Going from RDES SOFT TISSUE to S68 BREAST, the surviving fraction falls from 1.04 ± 0.12 to 0.684 ± 0.062.

SAOS2 BONE and SCC36 HEADNECK are within error of each other in surviving fraction: 0.649 ± 0.023 for the first, 0.687 ± 0.053 for the second.

SCC47 HEADNECK and SCC90 HEADNECK are within error of each other in surviving fraction: 0.961 ± 0.074 for the first, 1.1 ± 0.11 for the second.

First: SG27 HEADNECK
Second: SG28 HEADNECK
The surviving fraction of the first is higher: 0.943 ± 0.098 for the first, 0.706 ± 0.057 for the second.

Going from SG31 HEADNECK to SG32 HEADNECK, the surviving fraction falls from 0.958 ± 0.051 to 0.659 ± 0.056.

SG43 HEADNECK and SIHA CERVIX are within error of each other in surviving fraction: 0.731 ± 0.074 for the first, 0.785 ± 0.052 for the second.

SJSA1 BONE and SKBR3 BREAST are within error of each other in surviving fraction: 0.975 ± 0.075 for the first, 1.11 ± 0.13 for the second.

Compared with SNU475 LIVER, SUM44 BREAST is higher in surviving fraction: 0.894 ± 0.012 for the first, 1.07 ± 0.05 for the second.

Compared with SUM149 BREAST, SUM149.B1*.S BREAST is higher in surviving fraction: 0.916 ± 0.047 for the first, 1.07 ± 0.077 for the second.

Going from SUM159 BREAST to SYO1 SYNOVIAL, the surviving fraction falls from 1.1 ± 0.15 to 0.556 ± 0.046.

First: T47D BREAST
Second: U2OS BONE
The surviving fraction of the first is higher: 1.2 ± 0.073 for the first, 0.648 ± 0.0075 for the second.

Going from VCAP PROSTATE to VP229 BREAST, the surviving fraction rises from 0.705 ± 0.065 to 1.32 ± 0.033.

Compared with YAMATO SYNOVIAL, ZR751 BREAST is higher in surviving fraction: 0.816 ± 0.048 for the first, 0.971 ± 0.059 for the second.
